# Laboratory results: patent publication US20110268742A1, “PCTP MODULATORS IN THE TREATMENT OF ACNE, OF SEBORRHOEIC DERMATITIS OR OF HYPERSEBORRHOEA” (Galderma Research & Development, priority 2008, published 2011)
# How the values were obtained:
# [1] = test system: PCTP (phosphatidylcholine transfer protein) gene expression; assay: Expression of PCTP in rat sebaceous gland (epidermal split) after topical PPARgamma agonist, real-time PCR kinetics; format: in vivo; details: for PCTP relative induction: topical 1% in acetone, female Fuzzy rats, standardized to 18S, versus carrier group; for PCTP expression in vivo at the level of the sebaceous glands following topical treatment: topical treatment with PPARγ ligand at 1%
# Text: Number per batch: 40 (8 animals per group)
# Treatment: Route of administration: topical
# Compound/batch: PPARgamma agonists: • A: 5-{4-[2-(methylpyridin-2-ylamino)ethoxy]-benzyl}thiazolidine-2,4-dione • B: (2-methoxyethoxymethoxy)naphthalene-2-carboxylic acid [4′-(2,4-dioxothazolidin-5-ylmethyl)biphenyl-3-ylmethyl]methylamide or rosiglitazone • C: (S)-2-ethoxy-3-{4-[6-(3-heptyl-1-methyl-ureido)pyridin-2-yl]phenyl}propionic acid
# Method of evaluation: The animals are weighed at the beginning and at the end of the study. Skin biopsies are taken (6 samples of skin excised per rat) in order to analyse the expression of the genes (RNA extraction, reverse transcriptase and real-time PCR). The samples are stored overnight at 4° C. before incubation in 1M sodium bromide (NaBr) for 2 hours at 37° C. After incubation, the samples are separated into epidermis or dermis. The epidermal samples are stored at […]. Under these conditions, the sebaceous glands are in the epidermal split. PCRs are carried out, beginning with the cDNAs originating from the epidermal splits controlling sebaceous glands from control rats or rats treated with a PPARγ agonist; the mRNA is extracted using a column and quantified. The quality of the mRNAs is measured and is represented by the 18S/28S ratio. The results are standardized with respect to 18S, expressed as relative induction versus untreated animals (carrier group). The statistical analysis is obtained using internal software based on a modified Monte Carlo statistical analysis.
# [2] = test system: PCTP (phosphatidylcholine transfer protein) gene expression; assay: Expression of PCTP in Fuzzy rat epidermal split after 8 days of topical treatment, Affymetrix transcriptome analysis; format: in vivo; details: female Fuzzy rats, topical 1% once a day for 8 days, Affymetrix 1387058_at, control condition 143
# Experimental: Fuzzy Rat Epidermal Split Expression Data
# The studies are carried out in female Fuzzy rats (Hsd: Fuzzy-fz) ten weeks old at the beginning of the study. The animals are treated at a dose of 1% (PPARg agonist rosiglitazone in solution in acetone) once a day for 8 days. Two hours after the final treatment, the animals are sacrificed by euthanasia and the skin on the back is removed. After incubation in dispase, the epidermis carrying the sebaceous glands is detached from the dermis (epidermal split). After grinding of the samples, the mRNA is prepared using Qiagen columns, in accordance with the supplier's instructions. The material thus prepared is subjected to large-scale transcriptome analysis on an Affymetrix platform. The data are subsequently standardized and, after statistical analysis, the results produced are expressed in arbitrary expression units (see below) accompanied, for each piece of data, by a statistical value for presence of the transcript (presence=1; absence=0).
Compound,PCTP relative induction ([1]; 0 hours),PCTP relative induction ([1]; 8 hours),PCTP relative induction ([1]; 24 hours),PCTP relative induction ([1]; 48 hours),PCTP relative induction ([1]; 96 hours),PCTP expression in vivo at the level of the sebaceous glands following topical treatment [1],Expression after treatment with 1% rosiglitazone [2]
"CN(CCOc1ccc(CC2SC(=O)NC2=O)cc1)c1ccccn1 (stereo not shown) [A, 5-{4-[2-(methylpyridin-2-ylamino)ethoxy]-benzyl}thiazolidine-2,4-dione]",1,7.06,8.54,6.70,3.38,modulated,–
"CCCCCCCNC(=O)N(C)c1cccc(-c2ccc(C[C@H](OCC)C(=O)O)cc2)n1 [C, (S)-2-ethoxy-3-{4-[6-(3-heptyl-1-methyl-ureido)pyridin-2-yl]phenyl}propionic acid]",1,1.54,3.69,3.11,1.38,modulated,–
"(2-methoxyethoxymethoxy)naphthalene-2-carboxylic acid [4′-(2,4-dioxothazolidin-5-ylmethyl)biphenyl-3-ylmethyl]methylamide",1,2.57,2.79,3.37,1.15,modulated,445 arbitrary expression units
